According to US20240050579A1, “HYALURONAN-NIMESULIDE CONJUGATE FOR TREATING LOCALLY ADVANCED OR METASTATIC TUMORS” (Aihol Corporation, priority 2022, published 2024):

Experiments:
Format in all cases: in vivo
[1] = test system: CT26 mouse colon carcinoma; assay: Tumor volume / TGI in CT26 mice; settings: 5-FU alone 50 mg/kg IV QW
Method: Immunocompetent, female Balb/C […] mice (ages 6-8 weeks) were ordered and received from National Laboratory Animal Center. Animals were housed on irradiated corncob bedding in micro-isolator caging. Fluorescent lighting was provided on a 12-hour cycle under temperature (20-23° C.) and humidity control (30-70%). Rodent feed and autoclaved acidified water (pH 2.5-3) were provided ad libitum.
CT26 is an N-nitroso-N-methylurethane-(NNMU) induced, undifferentiated mouse colon carcinoma cell line. CT26 carcinoma cells were grown in McCoy's 5a culture medium supplemented with 10% (v/v) FBS and 1% PSN antibiotic mixture. The cells were maintained in an incubator with a humidified environment of 5% CO^2 at 37° C. in a 175 cm 2 flask and subcultured 2-3 times each week. On the study day, CT26 cells were thawed and prepared for inoculation into mice. Cells were washed in PBS, counted, and resuspended in cold PBS at concentrations of 2×10^6 viable cells/0.1 ml. […]
Animals were monitored weekly for palpable tumors or any changes in appearance or behavior. Once tumors were palpable, they were measured using calipers. Tumor volume was calculated using the following equation ½(4π/3)(L/2)(W/2)H, where L is the length, W is the width, and H is the height of the tumor. […] Data were expressed as mean±SEM.

[2] = test system: HT-29 human colon adenocarcinoma cells; assay: Tumor volume / TGI in HT-29 tumor-bearing mice; settings: for TGI (tumor growth inhibition rate): HT-29 mice, 5-FU 50 mg/kg QW
Method: (§1) Immunocompromised, Nu/Nu, Female athymic nu/nu (nude) mice (ages 5-6 weeks, LASCO) were purchased from LASCO. Animals were housed in individual HEPA ventilated cages (Innocage® IVC, Innovive USA) housed for stabilization. Fluorescent lighting was provided on a 12-hour cycle under temperature (20-23° C.) and humidity control (30-70%). Rodent feed and water were provided ad libitum.
(§2) HT-29 human colon adenocarcinoma cells (2×10^7) in PBS buffer were implanted subcutaneously on the right flank of each mouse. Once tumors were detectable, palpable and measurable, the primary tumor volumes were measured and recorded every 3 or 4 days. Tumor volume was calculated as ½(4π/3)(L/2)(W/2)H, where L is the length, W is the width, and H is the height of the tumor. […] Subjects were terminated from the study when the tumor volume reached approximately 1500 mm^3 or the body weight loss was greater than 20% (IACUC protocol limits).

[3] = test system: MDA-MB-231 human breast cancer cells; assay: Tumor volume in MDA-MB-231 tumor-bearing mice; settings: 5-FU alone 30 mg/kg TIW vs vehicle control
Method: as §1
as §2, with “MDA-MB-231” for “HT-29”, “breast cancer Cells (5×10^6)” for “colon adenocarcinoma cells (2×10^7)”, “½×L×W^2,” for “½(4π/3)(L/2)(W/2)H,”, “length and” for “length,”, “width.” for “width, and H is the height of the tumor.”

O=c1[nH]cc(F)c(=O)[nH]1 [5-FU, 5-fluorouracil]
TGI rate [1]: approximately 70% | TGI (tumor growth inhibition rate) ([2]; D21): ~60% | TGI (tumor growth inhibition rate) ([2]; D28): ~45% | tumor growth ([2]; HT-29 tumor-bearing mice, 5-FU alone 50 mg/kg QW vs vehicle control): did not reduce tumor growth | tumor growth [3]: did reduce tumor growth
